Source: US20220026439A1, “PARTICLE BASED SMALL MOLECULE-PROTEIN COMPLEX TRAP” (priority 2018, published 2022)
Like-named read-outs stand apart in the source and are kept apart here.

Experiments:
CRBN / ASS1 = target: T1, CRBN / ASS1 (Homo sapiens, UniProt Q96SW2); assay: ViroTrap (gag-CRBN bait) with LC-MS/MS: molecular glue-induced recruitment of endogenous ASS1 to CRBN in virus-like particles; type: cell-based
T1 construct: expressed in transfected cells; host or cells: HEK293T
Source text: In this study we evaluated the use of ViroTrap to identify molecular glue-induced endogenous (neo)substrates of CRBN in HEK293T cells. For this purpose, we used a previously described method known as ViroTrap (Eyckerman, et al. “Trapping mammalian protein complexes in viral particles,” Nature Communications 7: 11416 (2016); Titeca, et al. “Analyzing trapped protein complexes by Virotrap and SFINX.” Nature Protocols 12.5 (2017): 881). With this method, CRBN is expressed as a fusion protein with the viral protein HIV-GAG. HIV-GAG, when expressed in cells, such as HEK293T, is capable of triggering the formation of virus-like particles that bud off the cells. In the particle, the HIV-GAG protein is oriented towards the center of the particle. […] In the event the GAG-CRBN fusion interacts with proteins inside the cells, such proteins are dragged/trapped along with GAG-CRBN into the virus-like particles. In this manner, endogenous proteins that interact with CRBN, in presence or absence of a CRBN-ligand, can be identified. This is achieved by lysis of the particle and a standard mass-spectrometry analysis of tryptic digest of the sample. Subtractive analysis will then identify proteins that are specifically associated with the particle in response to a CRBN-ligand such as a molecular glue. […] Twenty-four hours after compound addition, virus-like particles (VLPs) were isolated from the cell supernatant using anti-Flag coated magnetobeads. After elution from the beads using Flag peptide, purified VLPs were lysed, and the protein content was digested overnight with trypsin. The peptide samples were analyzed through LC-MS/MS and label-free quantification data (LFQ intensities) from triplicate samples was processed using the MaxQuant software package and a volcano plot showing p-value (resulting from a two-sided t-test corrected for multiple testing; FDR 0.05%) versus LFQ intensity fold change (FIG. 1A-C) was generated with the Perseus tool.

FKBP12 / PPP3CA = FKBP12 / PPP3CA (Homo sapiens, UniProt P62942); assay: ViroTrap (gag-FKBP12 bait) with LC-MS/MS: FK506-induced binding of PPP3CA (calcineurin catalytic subunit) to FKBP12; type: cell-based; details: HEK293T cells
[1] = target: PPP3CA, a calcineurin catalytic subunit, endogenous (UniProt Q08209); assay: ViroTrap: gag-FKBP12 VLPs from HEK293T cells, LC-MS/MS label-free quantification; FK506 1 µM versus DMSO control

T1 sequence (Q96SW2 whole entry, species assumed): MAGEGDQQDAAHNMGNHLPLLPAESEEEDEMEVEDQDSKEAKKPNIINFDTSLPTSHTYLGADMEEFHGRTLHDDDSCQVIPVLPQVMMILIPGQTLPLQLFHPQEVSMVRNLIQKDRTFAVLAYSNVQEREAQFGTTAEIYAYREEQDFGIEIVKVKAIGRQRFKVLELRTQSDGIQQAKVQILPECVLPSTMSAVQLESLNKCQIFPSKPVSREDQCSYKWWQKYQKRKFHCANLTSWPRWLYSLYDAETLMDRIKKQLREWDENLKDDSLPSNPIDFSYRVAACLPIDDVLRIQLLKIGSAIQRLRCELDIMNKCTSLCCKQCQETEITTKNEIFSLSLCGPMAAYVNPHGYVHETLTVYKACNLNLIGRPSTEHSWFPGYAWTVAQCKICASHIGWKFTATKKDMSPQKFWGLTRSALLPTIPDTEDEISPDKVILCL
T1 sequence (P00966 whole entry partner, species assumed): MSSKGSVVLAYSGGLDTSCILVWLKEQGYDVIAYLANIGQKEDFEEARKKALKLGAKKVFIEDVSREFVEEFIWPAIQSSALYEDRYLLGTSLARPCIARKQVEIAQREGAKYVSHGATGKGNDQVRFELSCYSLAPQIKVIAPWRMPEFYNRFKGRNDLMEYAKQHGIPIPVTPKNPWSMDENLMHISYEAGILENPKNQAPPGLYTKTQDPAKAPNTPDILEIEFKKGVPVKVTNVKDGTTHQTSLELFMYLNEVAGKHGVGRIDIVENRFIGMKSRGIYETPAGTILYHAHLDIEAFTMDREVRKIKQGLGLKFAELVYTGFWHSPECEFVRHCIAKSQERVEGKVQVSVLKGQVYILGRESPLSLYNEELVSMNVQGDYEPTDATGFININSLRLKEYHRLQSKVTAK
T1 sequence (Q16531 2-1140 partner limits assumed, species assumed): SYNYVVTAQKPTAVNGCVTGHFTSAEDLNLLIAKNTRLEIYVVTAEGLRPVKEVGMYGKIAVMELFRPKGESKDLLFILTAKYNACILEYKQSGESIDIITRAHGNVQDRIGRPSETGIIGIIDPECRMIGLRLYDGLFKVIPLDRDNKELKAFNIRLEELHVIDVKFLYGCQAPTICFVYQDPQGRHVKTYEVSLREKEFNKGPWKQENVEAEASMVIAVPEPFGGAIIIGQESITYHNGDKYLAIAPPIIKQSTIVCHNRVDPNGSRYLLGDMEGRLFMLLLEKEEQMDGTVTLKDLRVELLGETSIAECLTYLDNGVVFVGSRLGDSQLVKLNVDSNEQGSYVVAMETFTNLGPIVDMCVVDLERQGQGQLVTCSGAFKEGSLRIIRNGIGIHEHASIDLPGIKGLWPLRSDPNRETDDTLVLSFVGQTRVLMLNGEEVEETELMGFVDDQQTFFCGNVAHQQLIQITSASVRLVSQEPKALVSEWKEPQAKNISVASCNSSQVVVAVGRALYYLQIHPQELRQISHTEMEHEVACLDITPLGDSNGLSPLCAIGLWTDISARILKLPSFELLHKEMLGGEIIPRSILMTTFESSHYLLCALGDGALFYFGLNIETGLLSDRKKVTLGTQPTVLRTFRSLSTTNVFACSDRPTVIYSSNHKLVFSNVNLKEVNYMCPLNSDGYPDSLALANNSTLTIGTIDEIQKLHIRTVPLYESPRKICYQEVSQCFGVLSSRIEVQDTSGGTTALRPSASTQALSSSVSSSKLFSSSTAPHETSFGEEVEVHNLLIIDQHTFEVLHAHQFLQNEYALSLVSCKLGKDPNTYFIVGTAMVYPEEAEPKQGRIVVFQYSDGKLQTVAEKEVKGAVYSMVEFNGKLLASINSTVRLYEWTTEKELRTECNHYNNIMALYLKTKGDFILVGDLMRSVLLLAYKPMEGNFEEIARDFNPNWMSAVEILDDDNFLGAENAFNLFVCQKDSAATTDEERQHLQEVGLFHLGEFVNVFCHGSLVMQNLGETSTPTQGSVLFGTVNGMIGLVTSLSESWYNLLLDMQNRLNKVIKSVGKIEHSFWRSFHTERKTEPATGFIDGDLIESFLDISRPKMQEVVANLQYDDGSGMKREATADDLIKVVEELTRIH
Chain of FKBP12 / PPP3CA (P62942 whole entry, species assumed, other chains not shown): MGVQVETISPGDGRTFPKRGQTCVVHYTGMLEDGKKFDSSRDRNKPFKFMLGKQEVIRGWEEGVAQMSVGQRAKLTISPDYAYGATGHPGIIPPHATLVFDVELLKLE
Chain of FKBP12 / PPP3CA (P63098 2-170 partner limits assumed, species assumed, other chains not shown): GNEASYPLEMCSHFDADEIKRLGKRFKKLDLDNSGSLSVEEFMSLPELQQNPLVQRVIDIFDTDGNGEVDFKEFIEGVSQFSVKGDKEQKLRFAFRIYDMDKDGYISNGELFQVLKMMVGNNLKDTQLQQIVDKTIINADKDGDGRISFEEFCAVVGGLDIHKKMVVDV
Chain of gag-FKBP12 fusion protein (P62942 whole entry, the tested form may be a part): as the sequence (P62942 whole entry, species assumed, other chains not shown) above

## O=C1CC[C@H](N2Cc3c(OCc4ccc(CN5CCOCC5)cc4)cccc3C2=O)C(=O)N1 [CC-220]
CRBN / ASS1; HEK293T cells, 10 μM lenalidomide, 10 μM pomalidomide, 1 μM CC-220, versus DMSO
  Compound-induced association of endogenous ASS1 with CRBN (result in words): induced the association of endogenous ASS1 with CRBN
CRBN / ASS1; bait CRBN, 1 μM compound, HEK293T cells, VLPs isolated 24 h after compound addition, triplicate samples
  Fold change (LFQ intensity, compound versus DMSO) of target protein ASS1: 3.31

## C=CC[C@@H]1/C=C(\C)C[C@H](C)C[C@H](OC)[C@H]2O[C@@](O)(C(=O)C(=O)N3CCCC[C@H]3C(=O)O[C@H](/C(C)=C/[C@@H]3CC[C@@H](O)[C@H](OC)C3)[C@H](C)[C@@H](O)CC1=O)[C@H](C)C[C@@H]2OC [FK506, tacrolimus]
FKBP12 / PPP3CA; FK506 versus DMSO
  FK506-induced enrichment of PPP3CA in gag-FKBP12 virus-like particles (result in words): enriched for the presence of PPP3CA
FKBP12 / PPP3CA; bait FKBP12, 1 μM compound
  Fold change (LFQ intensity, compound versus DMSO) of target protein PPP3CA: 9.71

## Nc1cccc2c1C(=O)N(C1CCC(=O)NC1=O)C2=O (stereo not shown) [Pomalidomide, pomalidomide]
CRBN / ASS1
  Compound-induced association of endogenous ASS1 with CRBN (result in words): induced the association of endogenous ASS1 with CRBN
  Fold change (LFQ intensity, compound versus DMSO) of target protein ASS1: 2.01

## gag-FKBP12 fusion protein (from UniProt P62942 1-108)
[1]
  Fold change (LFQ intensity, compound versus DMSO): 9.71 fold
